From US10231453B2, “5-substituted imidazole derivatives” (BAYER CROPSCIENCE AKTIENGESELLSCHAFT, priority 2015, dated 2019)
Like-named read-outs stand apart in the source and are kept apart here.

What was measured:
Fusarium graminearum = assay: whole plant or invertebrate; format: in vivo; conditions: in Hordeum vulgare, 120 h, read-out: efficacy
[1] = system: Fusarium nivale (var. majus); assay: In vivo preventive Fusarium nivale (var. majus) test (wheat), Example O; conditions: Microdochium nivale, 120 h, 500 ppm of active ingredient, preventive spray, evaluated 5 days after inoculation, read-out: efficacy
Source text: After the spray coating has been dried, the plants are slightly injured by using a sandblast and afterwards they are sprayed with a conidia suspension of Fusarium nivale (var. majus).

Alternaria brassicae = assay: In vivo preventive test on Alternaria brassicae (leaf spot on radish), Examples A and R1; conditions: Alternaria brassicae, 144 h
Uromyces appendiculatus = assay: In vivo preventive test on Uromyces appendiculatus (bean rust), Examples G and R7; conditions: 264 h, preventive spray, evaluated 11 days after inoculation
Fusarium culmorum = assay: In vivo preventive Fusarium culmorum test (wheat), Example L; conditions: 120 h, 500 ppm of active ingredient, preventive spray, evaluated 5 days after inoculation, read-out: efficacy
Method: After the spray coating has been dried, the plants are slightly injured by using a sandblast and afterwards they are sprayed with a conidia suspension of Fusarium culmorum.
The test is evaluated 5 days after the inoculation.

Septoria tritici = assay: In vivo preventive test on Septoria tritici (leaf spot on wheat), Examples E, Q3 and R5; conditions: Zymoseptoria tritici, 576 h, preventive spray, evaluated 24 days after inoculation
Pyrenophora teres = assay: In vivo preventive test on Pyrenophora teres (net blotch on barley), Examples D, Q2 and R4; conditions: Pyrenophora teres, 336 h; for pest or weed control at 100 ppm: Example R4, rate of application 100 ppm
[2] = Measurement of LogP values by HPLC on reversed phase columns (EEC directive 79/831 Annex V.A8); format: physicochemical; conditions: acidic range, Table 1
Method: Measurement of Log P values was performed as outlined above.

Botrytis cinerea = assay: In vivo preventive test on Botrytis cinerea (grey mould) on gherkin, Examples B, Q1 and R2; conditions: Botrytis cinerea; for pest or weed control at 100 ppm: Example R2, rate of application 100 ppm
Pyricularia oryzae = assay: whole plant or invertebrate; format: in vivo; conditions: 192 h, read-out: efficacy
Sphaerotheca fuliginea = assay: In vivo preventive test on Sphaerotheca fuliginea (powdery mildew on cucurbits), Examples F and R6; conditions: Podosphaera fuliginea, 360 h, preventive spray, evaluated 15 days after inoculation
[3] = system: Blumeria graminis fsp. hordei; assay: In vivo preventive Blumeria test (barley), Example K; conditions: 168 h, 500 ppm of active ingredient, preventive spray, evaluated 7 days after inoculation, read-out: efficacy
Source text: After the spray coating has been dried, the plants are dusted with spores of Blumeria graminis fsp. hordei.

Leptosphaeria nodorum = assay: In vivo preventive Leptosphaeria nodorum test (wheat), Example N; conditions: Parastagonospora nodorum, 192 h, 500 ppm of active ingredient, preventive spray, evaluated 8 days after inoculation, read-out: efficacy
Source text: After the spray coating has been dried, the plants are sprayed with a spore suspension of Leptosphaeria nodorum.

Puccinia recondita = assay: In vivo preventive test on Puccinia recondita (brown rust on wheat), Examples C and R3; conditions: Puccinia recondita, 264 h, preventive spray, evaluated 11 days after inoculation
Alternaria solani = assay: In vivo preventive Alternaria test (tomatoes), Example H; conditions: 72 h, 100 ppm of active ingredient, preventive spray, evaluated 3 days after inoculation, read-out: efficacy
Phakopsora pachyrhizi = assay: In vivo preventive Phakopsora test (soybeans), Example I; conditions: 168 h, 100 ppm of active ingredient, preventive spray, evaluated 7 days after inoculation, read-out: efficacy
Venturia inaequalis = assay: In vivo preventive Venturia test (apples), Example J; conditions: 240 h, read-out: efficacy
Method: After the spray coating has dried on, the plants are inoculated with an aqueous conidia suspension of the causal agent of apple scab (Venturia inaequalis) and then remain for 1 day in an incubation cabinet at approximately 20° C. and a relative atmospheric humidity of 100%.
The plants are then placed in a greenhouse at approximately 21° C. and a relative atmospheric humidity of approximately 90%.
The test is evaluated 10 days after the inoculation.

[4] = 500 ppm of active ingredient, preventive spray, evaluated 6 days after inoculation, read-out: efficacy
[5] = 500 ppm of active ingredient, bean, read-out: efficacy
[6] = 500 ppm of active ingredient, wheat, read-out: efficacy
[7] = 500 ppm of active ingredient, preventive spray, evaluated 14 days after inoculation, read-out: efficacy
[8] = method [a]: LC-UV, 0.1% formic acid in water and acetonitrile as eluent
[9] = 500 ppm of active ingredient, preventive spray, evaluated 4 to 5 days after inoculation, read-out: efficacy
[10] = 500 ppm of active ingredient, gherkin, read-out: efficacy
[11] = Example R7, bean, read-out: Efficacy in %
[12] = Example R7, bean, 500 ppm, read-out: Efficacy in %
[13] = Example R5, wheat, read-out: Efficacy in %
[14] = Example R5, wheat, 500 ppm, read-out: Efficacy in %
[15] = Example R4, rate of application 500 ppm, read-out: Efficacy in %
[16] = Example R2, rate of application 500 ppm, read-out: Efficacy in %
[17] = Example R3, wheat, read-out: Efficacy in %
[18] = Example R3, wheat, 500 ppm, read-out: Efficacy in %
[19] = Example R6, gherkin, read-out: Efficacy in %
[20] = Example R6, gherkin, 500 ppm, read-out: Efficacy in %

SMILES | pest or weed control at 500 ppm (Fusarium graminearum) [%] | pest or weed control at 500 ppm [1] [%] | pest or weed control at 500 ppm (Uromyces appendiculatus; [5]) [%] | pest or weed control at 500 ppm (Fusarium culmorum) [%] | pest or weed control at 500 ppm (Septoria tritici; [6]) [%] | pest or weed control at 500 ppm (Pyrenophora teres; [7]) [%] | chromatographic logP [2, 8] | pest or weed control at 500 ppm (Botrytis cinerea; [9]) [%] | pest or weed control at 500 ppm (Pyricularia oryzae) [%] | pest or weed control at 500 ppm (Sphaerotheca fuliginea; [10]) [%] | pest or weed control at 500 ppm [3] [%] | pest or weed control at 500 ppm (Leptosphaeria nodorum) [%] | pest or weed control at 500 ppm (Puccinia recondita; [6]) [%] | pest or weed control at 100 ppm (Alternaria solani) [%] | pest or weed control at 100 ppm (Uromyces appendiculatus; [11]) [%] | pest or weed control at 500 ppm (Uromyces appendiculatus; [12]) [%] | pest or weed control at 100 ppm (Septoria tritici; [13]) [%] | pest or weed control at 500 ppm (Septoria tritici; [14]) [%] | pest or weed control at 100 ppm (Phakopsora pachyrhizi) [%] | pest or weed control at 100 ppm (Venturia inaequalis) [%] | further results
OC(Cc1ccccc1Cl)(Cn1cncc1Cl)C1(Cl)CC1 (stereo not drawn) [Example I-02] | 80 to 89 | 90 to 100 | 90 to 100 | 70 to 79 | 90 to 100 | 90 to 100 | 2.32 | 90 to 100 | 70 to 79 | 90 to 100 | 90 to 100 | 90 to 100 | 80 to 89 | – | – | – | – | – | – | – | pest or weed control at 500 ppm (Alternaria brassicae; [4]): 90 to 100%; chromatographic logP ([2]; method [c]: LC-UV, 0.1% phosphoric acid and acetonitrile as eluent): 2
N#Cc1cncn1CC(O)(Cc1ccccc1Cl)C1(Cl)CC1 (stereo not drawn) [Example I-06, 1-[2-(1-chlorocyclopropyl)-3-(2-chlorophenyl)-2-hydroxypropyl]-1H-imidazole-5-carbonitrile] | 90 to 100 | 90 to 100 | 90 to 100 | 90 to 100 | 90 to 100 | 90 to 100 | 2.92 | 90 to 100 | 90 to 100 | 90 to 100 | 90 to 100 | 90 to 100 | 90 to 100 | 90 to 100 | 100 | 100 | 98 | 100 | 90 to 100 | 80 to 89 | pest or weed control at 100 ppm (Pyrenophora teres; read-out: Efficacy in %): 86%; pest or weed control at 500 ppm (Pyrenophora teres; [15]): 93%; pest or weed control at 100 ppm (Botrytis cinerea; read-out: Efficacy in %): 80%; pest or weed control at 500 ppm (Botrytis cinerea; [16]): 97%; pest or weed control at 100 ppm (Puccinia recondita; [17]): 89%; pest or weed control at 500 ppm (Puccinia recondita; [18]): 94%
N#Cc1cncn1CC(O)(Cc1cccnc1Cl)C1(Cl)CC1 (stereo not drawn) [Example I-26] | – | 90 to 100 | 90 to 100 | 90 to 100 | 90 to 100 | – | 2.01 | – | 80 to 89 | 90 to 100 | 90 to 100 | 70 to 79 | 90 to 100 | 80 to 89 | – | – | – | – | 70 to 79 | 90 to 100 | –
N#Cc1cncn1CC(O)(Cc1ccccc1F)C1(Cl)CC1 (stereo not drawn) [Example I-34, 1-[2-(1-chlorocyclopropyl)-3-(2-fluorophenyl)-2-hydroxypropyl]-1H-imidazole-5-carbonitrile] | 90 to 100 | 90 to 100 | 90 to 100 | 90 to 100 | 90 to 100 | 90 to 100 | 2.64 | 90 to 100 | – | 90 to 100 | 90 to 100 | 90 to 100 | 90 to 100 | 90 to 100 | 100 | 100 | 100 | 100 | 90 to 100 | 90 to 100 | pest or weed control at 500 ppm (Alternaria brassicae; [4]): 90 to 100%; pest or weed control at 100 ppm (Alternaria brassicae; Example R1, rate of application 100 ppm, read-out: Efficacy in %): 58%; pest or weed control at 500 ppm (Alternaria brassicae; Example R1, rate of application 500 ppm, read-out: Efficacy in %): 92%; pest or weed control at 100 ppm (Pyrenophora teres; read-out: Efficacy in %): 83%; pest or weed control at 500 ppm (Pyrenophora teres; [15]): 98%; pest or weed control at 100 ppm (Botrytis cinerea; read-out: Efficacy in %): 94%; pest or weed control at 500 ppm (Botrytis cinerea; [16]): 100%; pest or weed control at 100 ppm (Sphaerotheca fuliginea; [19]): 100%; pest or weed control at 500 ppm (Sphaerotheca fuliginea; [20]): 100%; pest or weed control at 100 ppm (Puccinia recondita; [17]): 94%; pest or weed control at 500 ppm (Puccinia recondita; [18]): 100%
C#Cc1cncn1CC(O)(Cc1ccccc1F)C1(Cl)CC1 (stereo not drawn) [Example I-36] | – | 90 to 100 | 90 to 100 | 80 to 89 | 90 to 100 | 90 to 100 | 1.89 | 90 to 100 | 90 to 100 | 90 to 100 | 90 to 100 | 80 to 89 | 90 to 100 | 90 to 100 | 100 | 100 | 83 | 75 | 90 to 100 | 90 to 100 | pest or weed control at 100 ppm (Pyrenophora teres; read-out: Efficacy in %): 57%; pest or weed control at 500 ppm (Pyrenophora teres; [15]): 93%; pest or weed control at 100 ppm (Botrytis cinerea; read-out: Efficacy in %): 100%; pest or weed control at 500 ppm (Botrytis cinerea; [16]): 100%; pest or weed control at 100 ppm (Sphaerotheca fuliginea; [19]): 100%; pest or weed control at 500 ppm (Sphaerotheca fuliginea; [20]): 100%; pest or weed control at 100 ppm (Puccinia recondita; [17]): 89%; pest or weed control at 500 ppm (Puccinia recondita; [18]): 94%
C#Cc1cncn1CC(O)(Cc1ccccc1Cl)C1(Cl)CC1 (stereo not drawn) [Example I-38] | – | 90 to 100 | 90 to 100 | 80 to 89 | 90 to 100 | 80 to 89 | 2.09 | 90 to 100 | 90 to 100 | 90 to 100 | 90 to 100 | 80 to 89 | 80 to 89 | 90 to 100 | – | – | – | – | 90 to 100 | 90 to 100 | –
OC(Cc1ccccc1)(Cn1cncc1Cl)C1(Cl)CC1 (stereo not drawn) [Example I-39] | 90 to 100 | 70 to 79 | 90 to 100 | 90 to 100 | 90 to 100 | 90 to 100 | 2.04 | 90 to 100 | 70 to 79 | 90 to 100 | 90 to 100 | 70 to 79 | 90 to 100 | 90 to 100 | – | – | – | – | 90 to 100 | – | –
N#Cc1cncn1CC(O)(Cc1cccc(F)c1F)C1(F)CC1 (stereo not drawn) [Example I-95] | 90 to 100 | 90 to 100 | 90 to 100 | 90 to 100 | 90 to 100 | 80 to 89 | 2.37 | – | 70 to 79 | 90 to 100 | 90 to 100 | 80 to 89 | 90 to 100 | 90 to 100 | – | – | – | – | 90 to 100 | 80 to 89 | –
